From ChEMBL document CHEMBL1201862, “PubChem BioAssay data set” (2004) come the findings set out here.

Among the test systems are 786-0; BT-549; CCRF-CEM; EKVX; HOP-62; HOP-92; HT-29; KM12; MCF7; MDA-MB-435; NCI-H522; OVCAR-4; OVCAR-5; PC-3; SF-539; SK-OV-3; SNB-19; TK-10; HCT-15; SNB-75.
Common to all, as to assay: NCI tumour cell line growth inhibition, 48 h

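How tested: cells in 96-well plates exposed to compound for 48 hours at five concentrations. GI50 is the concentration that inhibits growth by half.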 Active and inactive are the calls of the source. Rule as the data show it: active = GI50 up to about 1.1 µM and inactive = higher. Some results are limits rather than exact numbers.

For `C#CCCCOc1ncccn1`, the GI50 with 786-0 was > 100 µM (inactive); with BT-549, > 100 µM (inactive); with CCRF-CEM, > 10 µM (inactive); with EKVX, > 100 µM (inactive); in the experiment with HOP-62, > 100 µM (inactive); in the experiment with HOP-92 it was > 100 µM (inactive). Also, the GI50 in the experiment with HT-29, in the experiment on KM12, with MCF7, in the experiment on MDA-MB-435, with NCI-H522 and with OVCAR-4 was > 100 µM (inactive) throughout. In addition, the GI50 in the experiment on OVCAR-5, with PC-3, in the experiment on SF-539, in the experiment with SK-OV-3, in the experiment with SNB-19 and in the experiment with TK-10 was > 100 µM (inactive) each time.

In the case of `COc1ccc([C@]23CCN4COC[C@@H]([C@H]42)C2(CC3)OCC(C)(C)CO2)cc1OC`, the GI50 is > 100 µM (inactive) with 786-0; > 100 µM (inactive) in the experiment with BT-549; > 100 µM (inactive) with CCRF-CEM; > 100 µM (inactive) in the experiment with EKVX; > 100 µM with HCT-15; > 100 µM (inactive) with HOP-62. The GI50 was 31.3 µM (inactive) in the experiment with HOP-92; 89.7 µM (inactive) in the experiment on HT-29; > 100 µM (inactive) with KM12; > 100 µM (inactive) in the experiment with MCF7; > 100 µM (inactive) with MDA-MB-435; > 100 µM (inactive) with NCI-H522. Besides, the GI50 in the experiment with OVCAR-4 is > 100 µM (inactive); in the experiment with OVCAR-5, > 100 µM (inactive); with PC-3, > 100 µM (inactive); with SK-OV-3 it was > 100 µM (inactive); in the experiment with SNB-19 it was > 100 µM (inactive); in the experiment on SNB-75, 53.3 µM (inactive). Further, the GI50 in the experiment on TK-10 was > 100 µM (inactive).

On to `CC1CCC2C(C)(C)CC3(C)CCC1C23O` (stereo not given), for which the GI50 was 15.6 µM (inactive) with 786-0; 18.1 µM (inactive) in the experiment with BT-549; 4.02 µM (inactive) in the experiment with CCRF-CEM; 15.1 µM (inactive) in the experiment with EKVX; 16.9 µM in the experiment with HCT-15; 16.4 µM (inactive) in the experiment on HOP-62. Further, the GI50 is 13.3 µM (inactive) in the experiment with HOP-92; 16.3 µM (inactive) in the experiment on HT-29; 15.5 µM (inactive) in the experiment with KM12; 15.8 µM (inactive) in the experiment on MCF7; 15.6 µM (inactive) in the experiment on MDA-MB-435; 22.1 µM (inactive) with OVCAR-4. The GI50 with OVCAR-5 is 18.9 µM (inactive); with PC-3, 13 µM (inactive); in the experiment with SF-539, 17.8 µM (inactive); with SK-OV-3 it was 29 µM (inactive); in the experiment on SNB-19, 29.1 µM (inactive); with SNB-75, 18.8 µM (inactive). Moreover, in the experiment with TK-10, the GI50 was 17.7 µM (inactive).

With `C[C@]12CCC(=O)C=C1C[C@@H](O)[C@@H]1[C@@H]2CC[C@@]2(C)[C@H]1CC[C@]2(C)O`, the GI50 with 786-0 was > 100 µM (inactive); with BT-549 it was > 100 µM (inactive); with CCRF-CEM, > 100 µM (inactive); with EKVX, > 100 µM (inactive); with HCT-15, > 100 µM; with HOP-62, > 100 µM (inactive). Moreover, the GI50 in the experiment on HOP-92, with HT-29, with KM12, in the experiment with MCF7, in the experiment with MDA-MB-435 and with NCI-H522 was > 100 µM (inactive) in each case. Also, the GI50 in the experiment on OVCAR-4, in the experiment with OVCAR-5, with PC-3, in the experiment with SK-OV-3, in the experiment on SNB-19 and with SNB-75 was > 100 µM (inactive) throughout. In the experiment on TK-10, the GI50 was > 100 µM (inactive).
